Reference: EP0449699A2, “Pyrazole derivatives as angiotensin II-receptor antagonists, process for their preparation and pharmaceutical compositions containing them” (LABORATOIRES UPSA, priority 1990, dated 1991)

Test system: récepteurs surrénaliens de l'angiotensine II
Assay: Displacement of radioligand [125I]-SIAII specifically bound to adrenal angiotensin II receptors (rat adrenal homogenate)
Assay type: binding
Settings: 60 min, 25°C
Text: L'affinité des produits des exemples pour les récepteurs de l'angiotensine II est évaluée par technique de déplacement d'un radioligand spécifiquement fixé sur les récepteurs surrénaliens de l'angiotensine Il, chez le rat.
Une aliquote d'un homogénat de surrénales de rat incube en présence d'une concentration unique de [^125I]-SIAII (Sar^1, Tyr^4, Ile^8 - angiotensine II), antagoniste des récepteurs de l'angiotensine II, et de deux concentrations d'agents compétiteurs (10^-5 M, 10-^7 M) durant 60 min à 25°C.
La réaction est achevée par ajout de tampon, puis rapide filtration à travers des filtres de papier de verre. La liaison non spécifique est déterminée en présence d'angiotensine Il.
Les résultats sont exprimés, pour les concentrations testées, en pourcentage de déplacement du radioligand spécifiquement fixé sur les récepteurs surrénaliens de l'angiotensine Il.

| Structure (SMILES) | % de déplacement du ligand marqué (competitor 1E-5 M, 10 µM) | % de déplacement du ligand marqué (competitor 1E-7 M, 0.1 µM) |
| --- | --- | --- |
| CCCCc1nn(C)c(OCC(=O)N2CCOCC2)c1Cc1ccc(NC(=O)c2ccccc2NS(=O)(=O)C(F)(F)F)cc1 [Exemple 130, N-[[Méthyl-1 n-Butyl-3 [(trifluoro méthyl sulfonyl amino-2 benzoyl)amino-4 benryl]-4 pyrazol-yl-5]oxyacétyl] morpholine] | 74% | 33% |
| CCCc1nn(C)c(OCC(=O)OC)c1Cc1ccc(-c2ccccc2NS(=O)(=O)C(F)(F)F)cc1 [Exemple 135, [Méthyl-1 n-Propyl-3 (trifluoro méthyl sulfonyl amlmo-2'blphényl-yl-4)méthyl-4 pyrazol-yl-5] oxy acétatede méthyle] | 65% | 34% |
| CCCc1nn(C)c(OCC(=O)OCC)c1Cc1ccc(-c2ccsc2-c2nnn[nH]2)cc1 [Exemple 141, [Méthyl-1 n-propyl-3 [[(tétrazolyl-5)-2 thiényl-3]-4 benzyl]-4 pyrazol-yl-5] oxy acétate d'éthyle] | 64% | 9% |

The remaining lines, values ahead:

| % de déplacement du ligand marqué (competitor 1E-5 M, 10 µM) | % de déplacement du ligand marqué (competitor 1E-7 M, 0.1 µM) | Structure (SMILES) |
| --- | --- | --- |
| 63% | 5% | CCCc1nn(C)c(OCCO)c1Cc1ccc(-c2ccccc2C(=O)O)cc1 [Exemple 137, [Méthyl-1 n-Propyl-3 (carboxy-2'blphényl-yl-4)méthyl-4 pyrazol-yl-5]oxy-2 éthanol] |
| 53% | 0% | CCCc1nn(C)c(OCCO)c1Cc1ccc(-c2ccsc2C(=O)O)cc1 [Exemple 145, [Méthyl-1 n-Propyl-3 [(carboxy-2 thiényl-3)-4 benzyl]-4 pyrazol-yl-5] oxy-2 éthanol] |
